Here are results for 9 compounds from PubChem BioAssay (NCI).

Among the test systems are NCI-H23 lung; MALME-3M melanoma; SF-295 CNS; MCF7 breast; LOX IMVI melanoma; HOP-92 NSCLC; KM12 colon; K-562 leukemia; HOP-62 NSCLC; ACHN renal.
What all share (test): NCI anticancer screen, dose series, 48 h

Several values for one entry are separate records, joined by “and”; a condition that tells them apart may be missing. Equal values may be shown once.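 How tested: cells in 96-well plates exposed to compound for 48 hours at five concentrations. GI50: concentration for 50% inhibition of growth. Definition used: TGI = concentration required for complete inhibition of growth.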

On to `CC[C@@]1(O)C(=O)OCc2c1cc1n(c2=O)Cc2cc3cc(OC)ccc3nc2-1`, for which the GI50 was 0.0273 µM in the assay on NCI-H23 lung; 0.0257 µM in the assay with MALME-3M melanoma; 0.0125 µM in the assay with LOX IMVI melanoma; 0.0251 µM in the assay on HOP-92 NSCLC; 0.273 µM in the assay with KM12 colon; 0.0571 µM and 0.0344 µM with K-562 leukemia. For the same compound, the TGI in the assay on MALME-3M melanoma was 0.548 µM; in the assay with SF-295 CNS it was 0.0933 µM and 0.8 µM; with MCF7 breast, 0.196 µM; in the assay with LOX IMVI melanoma it was 0.173 µM and 0.298 µM and 0.105 µM; with HOP-92 NSCLC, 0.084 µM and 0.41 µM; in the assay with KM12 colon it was 2.58 µM and 1.54 µM. Further, the figures for the TGI in the assay on K-562 leukemia and in the assay on HOP-62 NSCLC were > 100 µM and 0.948 µM, respectively.
For the compound `COC(=O)c1c2c(c(C)[n+]([O-])c1C)C(=O)C=C(NCc1cccc(OC)c1)C2=O`, the GI50 was 1.01 µM in the assay on ACHN renal; 0.515 µM with NCI-H23 lung; 0.15 µM in the assay with MALME-3M melanoma; 0.772 µM in the assay on SF-295 CNS; 0.258 µM in the assay on MCF7 breast; 0.249 µM in the assay on LOX IMVI melanoma. In addition, the GI50 in the assay with HOP-92 NSCLC was 1.99 µM; in the assay on K-562 leukemia, 0.37 µM; in the assay with HOP-62 NSCLC it was 1.58 µM. Also, the TGI in the assay on ACHN renal turned out to be 2.19 µM; in the assay on NCI-H23 lung, 2.57 µM; in the assay on MALME-3M melanoma, 0.341 µM; with SF-295 CNS, 2.1 µM; in the assay on MCF7 breast, 0.826 µM; in the assay on LOX IMVI melanoma, 1.44 µM. The TGI in the assay with HOP-92 NSCLC came to 4.7 µM; with K-562 leukemia, 6.51 µM; in the assay with HOP-62 NSCLC, 3.39 µM.
For the compound `O=S(=O)(NC(=S)Nc1ccccc1)c1ccc(N2N=C3c4ccccc4CC3C2c2cccs2)cc1` (centres undefined), the GI50 in the assay on ACHN renal was 26.4 µM; in the assay on NCI-H23 lung, 17.6 µM; in the assay with SF-295 CNS, 18.9 µM; in the assay on MCF7 breast it was 3.7 µM; in the assay on LOX IMVI melanoma it was 24.4 µM; in the assay with HOP-92 NSCLC, 24.9 µM. In addition, the GI50 in the assay on KM12 colon was 21.5 µM; with K-562 leukemia, 31.3 µM; with HOP-62 NSCLC, 20.3 µM. The TGI with ACHN renal is 67.7 µM; with NCI-H23 lung, 39.5 µM; in the assay on SF-295 CNS it was 41.8 µM; with MCF7 breast, > 100 µM; with LOX IMVI melanoma, 70.7 µM; in the assay on HOP-92 NSCLC it was 71.7 µM. The TGI with KM12 colon is > 100 µM; in the assay with K-562 leukemia, 56.5 µM; in the assay on HOP-62 NSCLC it was 45.7 µM.
Turning to `C/C=C(\C)C(=O)O[C@@H]1C(O)[C@H]2OC(COC(=O)CCC(=O)CCCCCC[C@H](CCCCC)O[C@@H]3OC(C)[C@H](OC(C)=O)C(O)[C@H]3O2)[C@H]1OC(=O)/C=C/c1ccccc1` (some centres undefined), the GI50 in the assay on ACHN renal is 0.0175 µM; in the assay on NCI-H23 lung it was 0.293 µM; in the assay on MALME-3M melanoma, 0.0558 µM; in the assay with SF-295 CNS it was < 0.01 µM; in the assay with MCF7 breast it was < 0.01 µM; in the assay with HOP-92 NSCLC, < 0.01 µM. In addition, the GI50 with KM12 colon was < 0.0138 µM; in the assay on K-562 leukemia, < 0.01 µM; in the assay with HOP-62 NSCLC, < 0.0148 µM. Moreover, the TGI in the assay on ACHN renal was 12.3 µM; with NCI-H23 lung it was 62.3 µM; in the assay with MALME-3M melanoma it was 6.48 µM; with SF-295 CNS, 1.15 µM; in the assay with MCF7 breast, 17.3 µM; in the assay with HOP-92 NSCLC, 0.415 µM. For the same compound, the TGI in the assay on KM12 colon was > 100 µM; in the assay on K-562 leukemia, > 100 µM; in the assay on HOP-62 NSCLC, 7.18 µM.
For the compound `Nc1nc2c(c3ncccc13)C(c1cccc(Cl)c1)Cc1ncccc1-2` (centres undefined), the GI50 is 5.13 µM in the assay on ACHN renal; 4.93 µM in the assay on NCI-H23 lung; 15.2 µM in the assay on MALME-3M melanoma; 2.21 µM in the assay on SF-295 CNS; 0.514 µM in the assay with MCF7 breast; 5.12 µM with LOX IMVI melanoma. In addition, the GI50 in the assay on KM12 colon is 0.646 µM; in the assay on K-562 leukemia it was 0.53 µM; in the assay with HOP-62 NSCLC, 2.45 µM. In addition, the TGI in the assay on ACHN renal was 67.1 µM; in the assay with NCI-H23 lung, 59.4 µM; with MALME-3M melanoma it was 60.4 µM; in the assay on SF-295 CNS, 11 µM; with MCF7 breast, 17.6 µM; in the assay with LOX IMVI melanoma, 19.5 µM. Moreover, the TGI with KM12 colon is 15.5 µM; in the assay on K-562 leukemia it was > 100 µM; in the assay with HOP-62 NSCLC it was 18.1 µM.
For `CCCCn1c2c(c3ccccc3c1=O)C(=O)c1ccccc1-2`, the TGI in the assay on NCI-H23 lung, with MALME-3M melanoma, in the assay on SF-295 CNS, with MCF7 breast, in the assay with LOX IMVI melanoma and with HOP-92 NSCLC was > 100 µM each time. Also, the TGI with KM12 colon, in the assay with K-562 leukemia and in the assay with HOP-62 NSCLC was > 100 µM in each case.
Consider `N#C/C(=C\c1ccc(Br)cc1)n1nnc2cccc(F)c21`, for which the GI50 was 1.41 µM with ACHN renal; 1.43 µM with NCI-H23 lung; 1.92 µM with SF-295 CNS; 0.445 µM with MCF7 breast; 0.614 µM in the assay with LOX IMVI melanoma; 1.51 µM in the assay on KM12 colon. Further, the GI50 was 0.386 µM in the assay on K-562 leukemia and 2.38 µM in the assay with HOP-62 NSCLC. For the same compound, the TGI with ACHN renal amounted to 3.48 µM; with NCI-H23 lung, 3.07 µM; in the assay on SF-295 CNS, 3.88 µM; in the assay on MCF7 breast, 1.98 µM; in the assay with LOX IMVI melanoma, 1.92 µM; with KM12 colon it was 3.31 µM. The TGI in the assay on K-562 leukemia is > 100 µM; in the assay with HOP-62 NSCLC it was 8.49 µM.
On to `CO[C@H]1[C@H](O)[C@H](O[C@H]2CC[C@@]3(C)[C@H](CC[C@@H]4[C@@H]3CC[C@]3(C)[C@@H](C5=CC(=O)OC5)CC[C@]43O)C2)O[C@@H](C)[C@@H]1O`, for which the TGI in the assay with ACHN renal is 0.00152 µM; in the assay with NCI-H23 lung, 0.00127 µM; with MALME-3M melanoma it was 0.000721 µM; in the assay on SF-295 CNS, 0.00224 µM and < 0.0107 µM; in the assay on MCF7 breast it was 0.0288 µM; with LOX IMVI melanoma, 0.00271 µM and < 0.0111 µM. In addition, the TGI is 0.00571 µM and 0.0336 µM in the assay with HOP-92 NSCLC; 0.0125 µM with KM12 colon; 0.0647 µM in the assay on K-562 leukemia. In addition, in the assay with K-562 leukemia, the GI50 was 0.00062 µM.
In the case of `NC1=NC(c2ccccc2)N=C(Nc2ccccc2)N1` (centres undefined), the GI50 in the assay with ACHN renal was > 100 µM; with NCI-H23 lung it was > 100 µM; in the assay on SF-295 CNS, > 100 µM; in the assay with MCF7 breast, 38.5 µM; with LOX IMVI melanoma, > 100 µM; with HOP-92 NSCLC it was > 100 µM. In addition, the figures for the GI50 with KM12 colon, with K-562 leukemia and in the assay with HOP-62 NSCLC were 31.6 µM, > 100 µM and > 100 µM, respectively. The TGI with ACHN renal, with NCI-H23 lung, in the assay on SF-295 CNS, in the assay on MCF7 breast, with LOX IMVI melanoma and in the assay on HOP-92 NSCLC was > 100 µM throughout. Also, the TGI in the assay on KM12 colon, in the assay with K-562 leukemia and in the assay on HOP-62 NSCLC was > 100 µM throughout.
